According to patent US6989389B2, “Aryl ether substituted imidazoquinolines” (3M Innovative Properties Co., priority 2000, dated 2006):
Counter-ions that a name gives are not always drawn. Like-named read-outs stand apart in the source and are kept apart here.

Tested on: Peripheral blood mononuclear cells (PBMC)
Test: Cytokine Induction in Human Cells (in vitro human blood cell system, IFN and TNF secreted into culture media)
Type: cell-based
Set-up: key to Lowest Effective Concentration (μM) Tumor Necrosis Factor / Lowest Effective Concentration (μM) Interferon: *: no induction was seen at any of the tested concentrations
Conditions: 18 to 24 hours, tested 30-0.014 μM
From the text: An in vitro human blood cell system is used to assess cytokine induction. Activity is based on the measurement of interferon and tumor necrosis factor (α) (IFN and TNF, respectively) secreted into culture media as described by Testerman et. al. In “Cytokine Induction by the Immunomodulators Imiquimod and S-27609”, Journal of Leukocyte Biology, 58, 365-372 (September, 1995).
Whole blood from healthy human donors is collected by venipuncture into EDTA vacutainer tubes. Peripheral blood mononuclear cells (PBMC) are separated from whole blood by density gradient centrifugation using Histopaque®-1077. Blood is diluted 1:1 with Dulbecco's Phosphate Buffered Saline (DPBS) or Hank's Balanced Salts Solution (HBSS). The PBMC layer is collected and washed twice with DPBS or HBSS and resuspended at 4×10^6 cells/mL in RPMI complete. The PBMC suspension is added to 48 well flat bottom sterile tissue culture plates (Costar, Cambridge, Mass. or Becton Dickinson Labware, Lincoln Park, N.J.) containing an equal volume of RPMI complete media containing test compound.
The compounds are solubilized in dimethyl sulfoxide (DMSO). The DMSO concentration should not exceed a final concentration of 1% for addition to the culture wells. The compounds are generally tested at concentrations ranging from 30-0.014 μM.
The solution of test compound is added at 60 μM to the first well containing RPMI complete and serial 3 fold dilutions are made in the wells. The PBMC suspension is then added to the wells in an equal volume, bringing the test compound concentrations to the desired range (30-0.014 μM). The final concentration of PBMC suspension is 2×10^6 cells/mL. The plates are covered with sterile plastic lids, mixed gently and then incubated for 18 to 24 hours at 37° C. in a 5% carbon dioxide atmosphere.
Following incubation the plates are centrifuged for 10 minutes at 1000 rpm (˜200×g) at 4° C. The cell-free culture supernatant is removed with a sterile polypropylene pipet and transferred to sterile polypropylene tubes. Samples are maintained at −30 to −70° C. until analysis. The samples are analyzed for interferon (α) by ELISA and for tumor necrosis factor (α) by ELISA or IGEN Assay.
Interferon (α) concentration is determined by ELISA using a Human Multi-Species kit from PBL Biomedical Laboratories, New Brunswick, N.J. Results are expressed in pg/mL.
Tumor necrosis factor (α) (TNF) concentration is determined using ELISA kits available from Biosource International, Camarillo, Calif. Alternately, the TNF concentration can be determined by Origen® M-Series Immunoassay and read on an IGEN M-8 analyzer from IGEN International, Gaithersburg, Md. The immunoassay uses a human TNF capture and detection antibody pair from Biosource International, Camarillo, Calif. Results are expressed in pg/mL.
The table below lists the lowest concentration found to induce interferon and the lowest concentration found to induce tumor necrosis factor for each compound.

[1] = lowest concentration found to induce tumor necrosis factor (α), ELISA or IGEN assay
[2] = Homo sapiens, PBMC, lowest concentration found to induce interferon (α), ELISA, read-out: Lowest Effective Concentration (μM) Interferon
[3] = Homo sapiens, PBMC, lowest concentration found to induce tumor necrosis factor (α), ELISA or IGEN assay, read-out: Lowest Effective Concentration (μM) Tumor Necrosis Factor
[4] = lowest concentration found to induce interferon (α), ELISA

SMILES | minimal effective concentration (lowest concentration found to induce interferon (α), ELISA, read-out: Lowest Effective Concentration (μM) Interferon) [µM] | Lowest Effective Concentration (μM) Tumor Necrosis Factor [1] | minimal effective concentration [2] [µM] | minimal effective concentration [3] [µM] | Lowest Effective Concentration (μM) Interferon [4]
CCC(COCc1cccc(Cl)c1)n1cnc2c(N)nc3ccccc3c21 (centres unmarked) [Example 47] | 0.12 | * |  |  | 
CCC(COCc1ccccc1)n1c(C)nc2c(N)nc3ccccc3c21 (centres unmarked) [Example 81] |  | * | 1.11 |  | 
Nc1nc2ccccc2c2c1ncn2COCCOCc1ccccc1 [Example 84] |  | * | 0.37 |  | 
N#Cc1cccc(COCCOCn2cnc3c(N)nc4ccccc4c32)c1 [Example 88] |  |  | 0.37 | 30 | 
Cc1cccc(COCCCCn2cnc3c(N)nc4ccccc4c32)c1 [Example 76] |  | * | 1.11 |  | 
CCC(COCc1ccc(C)cc1)n1cnc2c(N)nc3ccccc3c21 (centres unmarked) [Example 49] |  | * | 0.04 |  | 
Nc1nc2ccccc2c2c1ncn2CC(OCc1ccc(Cl)cc1)c1ccccc1 (centres unmarked) [Example 29] |  | * |  |  | *
Cc1cccc(COCCOCn2cnc3c(N)nc4ccccc4c32)c1 [Example 86] |  | * | 0.37 |  | 
CCCCc1nc2c(N)nc3c(c2n1CCOCc1cccc(C#N)c1)CCCC3 [Example 94] |  |  | 0.01 | 3.33 | 
CC(Cn1cnc2c(N)nc3ccccc3c21)Oc1ccc(C(C)(C)CC(C)(C)C)cc1 (centres unmarked) [Example 100] |  | * |  |  | *
CC(Cn1cnc2c(N)nc3ccccc3c21)Oc1ccc([N+](=O)[O-])cc1 (centres unmarked) [Example 54] |  | * | 0.12 |  | 
Nc1nc2ccccc2c2c1ncn2CCCCOCc1ccc(C(F)(F)F)cc1 [Example 78] |  | * |  |  | *
CCC(COc1ccc(-n2ccnc2)cc1)n1cnc2c(N)nc3ccccc3c21 (centres unmarked) [Example 101] |  |  | 0.04 | 10 | 
CC(C)C(COCc1ccccc1)n1cnc2c(N)nc3ccccc3c21 (centres unmarked) [Example 59] |  | * | 1.11 |  | 
CC(Cn1cnc2c(N)nc3ccccc3c21)OCc1ccc(C(C)(C)C)cc1 (centres unmarked) [Example 67] |  |  |  | 30 | *
Nc1nc2ccccc2c2c1ncn2CCCCOCc1ccccc1 [Example 75] |  | * |  |  | *
CCC(COCc1ccc(OC(F)(F)F)cc1)n1cnc2c(N)nc3ccccc3c21 (centres unmarked) [Example 48] |  | * | 0.12 |  | 
CC(Cn1cnc2c(N)nc3ccccc3c21)OCc1ccc(Cl)cc1 (centres unmarked) [Example 52] |  | * | 1.11 |  | 
CCC(COc1ccccc1C#N)n1cnc2c(N)nc3ccccc3c21 (centres unmarked) [Example 102] |  | * | 0.37 |  | 
Nc1nc2ccccc2c2c1ncn2CC(OCc1cccc(Cl)c1)c1ccccc1 (centres unmarked) [Example 30] |  | * | 3.33 |  | 

SMILES | minimal effective concentration (lowest concentration found to induce interferon (α), ELISA, read-out: Lowest Effective Concentration (μM) Interferon) [µM] | Lowest Effective Concentration (μM) Tumor Necrosis Factor [1] | minimal effective concentration [2] [µM] | minimal effective concentration [3] [µM] | Lowest Effective Concentration (μM) Interferon [4]
C#CCOCCn1c(CCOC)nc2c(N)nc3ccccc3c21 [Example 144, 2-(2-Methoxyethyl)-1-[2-(prop-2-ynyloxy)ethyl]-1H-imidazo[4,5-c]quinolin-4-amine] |  |  | 0.01 | 0.04 | 
COC(=O)c1ccc(COCCn2cnc3c(N)nc4ccccc4c32)cc1 [Example 41] |  |  | 1.11 | 3.33 | 
Cc1cccc(COC(Cn2cnc3c(N)nc4ccccc4c32)c2ccccc2)c1 (centres unmarked) [Example 32] |  | * | 10 |  | 
Cc1ccc(COC(C)Cn2cnc3c(N)nc4ccccc4c32)cc1 (centres unmarked) [Example 50] |  | * | 3.33 |  | 
CC(n1cnc2c(N)nc3ccccc3c21)C(C)(C)OCc1ccccc1 (centres unmarked) [Example 80] |  | * |  |  | *
COc1ccc(OC(C)Cn2cnc3c(N)nc4ccccc4c32)cc1 (centres unmarked) [Example 99] |  | * | 0.37 |  | 
CCCCc1nc2c(N)nc3c(c2n1CCOCc1ccc(C#N)cc1)CCCC3 [Example 93] |  |  | 0.12 | 10 | 
CC(C)C(COCc1ccc(C#N)cc1)n1cnc2c(N)nc3ccccc3c21 (centres unmarked) [Example 64] |  | * | 3.33 |  | 
CCC(COc1ccc(NC(C)=O)cc1)n1cnc2c(N)nc3ccccc3c21 (centres unmarked) [Example 104] |  |  | 0.12 | 10 | 
Cc1ccc(COC(C)(C)Cn2cnc3c(N)nc4ccccc4c32)cc1 [Example 36] |  | * |  |  | *
CC[C@H](COCc1ccc(C#N)cc1)n1cnc2c(N)nc3ccccc3c21 [Example 142, 4-({[(2R)-2-(4-Amino-1H-imidazo[4,5-c]quinolin-1-yl)butyl]oxy}methyl)benzonitrile] |  |  | 0.04 | 0.04 | 
CC(C)C(COc1ccccc1[N+](=O)[O-])n1cnc2c(N)nc3ccccc3c21 (centres unmarked) [Example 57] |  |  |  | 30 | *
CCOCc1nc2c(N)nc3ccccc3c2n1CCOCCCCCCOCCCCc1ccccc1 [Example 20, 2-(Ethoxymethyl)-1-(2-{[6-(4-phenylbutoxy)hexyl]oxy}ethyl)-1H-imidazo[4,5-c]quinoline-4-amine] |  | * |  |  | *
CCCCc1nc2c(N)nc3c(c2n1CCOCc1ccc(C(F)(F)F)cc1)CCCC3 [Example 91] |  |  | 0.37 | 10 | 
CC(Cn1cnc2c(N)nc3ccccc3c21)Oc1ccc(-n2ccnc2)cc1 (centres unmarked) [Example 98] |  | * | 0.37 |  | 
Nc1nc2ccccc2c2c1ncn2CCOCCCc1ccccc1C(=O)O [Example 13, 2-{3-[2-(4-Amino-1H-imidazo[4,5-c]quinolin-1-yl)ethoxy]propyl}benzoic acid trifluoroacetate] |  |  | 10 | 10 | 
CC[C@H](COCCCc1ccccc1)n1cnc2c(N)nc3ccccc3c21 [Example 109, 1-{(1R)-1-[(3-Phenylpropoxy)methyl]propyl}-1H-imidazo[4,5-c]quinolin-4-amine] |  |  | 0.01 | 0.37 | 
CCc1nc2c(N)nc3ccccc3c2n1C(CC)COCc1ccccc1 (centres unmarked) [Example 82] |  | * |  |  | *
CC(C)C(COCc1cccc(Cl)c1)n1cnc2c(N)nc3ccccc3c21 (centres unmarked) [Example 61] |  | * | 3.33 |  | 
Nc1nc2ccccc2c2c1ncn2CCOCCCc1ccc(C(=O)O)cc1 [Example 14, 4-{3-[2-(4-Amino-1H-imidazo[4,5-c]quinolin-1-yl)ethoxy]propyl}benzoic acid trifluoroacetate] |  |  | 10 | 10 | 
